Assay results from EP0785195A1, “Piperidine or tetrahydropyridine derivatives having affinity for the serotonin 5-HTIA receptor” (AMERICAN HOME FOOD PRODUCTS, INC., priority 1996, dated 1997).

Biological target: T1, 5-HT1A serotonin receptor (Rattus norvegicus, UniProt P19327)
T1 construct: from tissue; host or cells: rat brain membranes (inferred from the cited Hall et al. procedure)
T1 sequence (P19327 1-422): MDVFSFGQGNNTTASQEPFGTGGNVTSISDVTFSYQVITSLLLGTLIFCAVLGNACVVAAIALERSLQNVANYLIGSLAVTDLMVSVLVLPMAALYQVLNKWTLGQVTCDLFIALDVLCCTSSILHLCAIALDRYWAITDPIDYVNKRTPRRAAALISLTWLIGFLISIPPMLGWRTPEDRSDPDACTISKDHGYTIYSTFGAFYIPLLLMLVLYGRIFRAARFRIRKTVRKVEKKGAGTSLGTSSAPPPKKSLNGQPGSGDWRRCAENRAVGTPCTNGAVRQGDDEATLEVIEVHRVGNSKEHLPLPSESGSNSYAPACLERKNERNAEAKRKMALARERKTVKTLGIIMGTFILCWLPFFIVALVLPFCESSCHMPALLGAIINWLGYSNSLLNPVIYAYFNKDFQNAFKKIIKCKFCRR
Test: displacement of [3H] 8-OHDPAT from the 5-HT1A serotonin receptor (procedure of Hall et al.)
Type: binding
From the text: 8-OHDPAT (dipropylaminotetralin) from the 5-HT1A serotonin receptor following the procedure of Hall et al., J. Neurochem. 44, 1685 (1985).

Structure (SMILES)	IC50 [nM]
C[C@H](CN1CC=C(c2cccc3[nH]ccc23)CC1)N(C(=O)C1CCCCC1)c1ccccn1 [Example 2]	1.7
C[C@H](CN1CC=C(c2cccc3[nH]ccc23)CC1)Nc1ccccn1 [Example 1, {(R)-2-[4-(1H-Indol-4-yl)-(1,2,3,6-tetrahydro-pyridin-1-yl)]-1-methyl-ethyl}-(pyridin-2-yl)-amine]	11.6
